Values of other authors as cited in paper PMC10651166 (Journal of acquired immune deficiency syndromes (1999), 2023).
Values after ≈ are worked out from the molar mass of the structure shown.

Tested on: wild-type virus (HIV)
Details: protein-adjusted

## CC(C)CN(C[C@@H](O)[C@H](Cc1ccccc1)NC(=O)O[C@H]1CO[C@H]2OCC[C@H]21)S(=O)(=O)c1ccc(N)cc1 [Darunavir]
  EC50: 0.055 µg/mL (≈ 0.1 µM)
